# Measured values reported in US20130324556A1, “Protease Activated Receptor 2 (PAR2) Antagonists” (priority 2011, published 2013).
# Where a name gives a salt, the structure may show the parent alone.
# Molecular target: T1, human PAR2 receptor (Homo sapiens, UniProt P55085)
# T1 construct: expressed in transfected cells; host or cells: 1321N1 cells
# T1 sequence (P55085 26-397): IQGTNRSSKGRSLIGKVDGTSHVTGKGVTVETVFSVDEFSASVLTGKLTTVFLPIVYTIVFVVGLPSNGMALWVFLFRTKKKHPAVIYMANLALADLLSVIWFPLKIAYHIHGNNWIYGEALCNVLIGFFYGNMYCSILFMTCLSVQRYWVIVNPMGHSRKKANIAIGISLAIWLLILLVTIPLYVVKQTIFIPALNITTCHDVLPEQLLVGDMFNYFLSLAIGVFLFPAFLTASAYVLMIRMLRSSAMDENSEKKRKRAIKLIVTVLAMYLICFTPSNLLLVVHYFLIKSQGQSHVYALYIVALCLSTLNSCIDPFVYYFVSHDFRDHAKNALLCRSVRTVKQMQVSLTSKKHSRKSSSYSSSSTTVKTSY
# Assay: PAR2 antagonist activity, calcium flux FLIPR assay (trypsin challenge)
# Assay type: cell-based
# Details: 1321N1 cells transfected with the human PAR2 receptor; trypsin (EC50 concentration) challenge; calcium flux FLIPR; read-out: PAR2 IC50
# Description: The PAR2 receptor couples through the Gq signaling pathway and results in activation of calcium mobilization. The functional activity of test compounds was routinely tested by measuring the ability of compounds to antagonize PAR2 (trypsin challenge) activity in a dose dependent manner, in 1321N1 cells transfected with the human PAR2 receptor, using a calcium flux Fluorescent Imaging Plate Reader FLIPR assay.
# Briefly, test compounds were dissolved in DMSO to a concentration of 20 mM and stored in matrix screenmate racks. […] The compounds were then transferred to 384-well assay plates ready for use. […] The assay buffer used was HBSS buffer supplemented with 20 mM HEPES and 0.1% BSA (protease free), pH7.4. The loading/wash buffers were the same as the assay buffer.
# Sub-cultivations were performed every 2-3 d. […] After washing, the cells were loaded with Fluo-4 AM dye (Molecular probes) at 2 μM containing 0.48 μg/mL pluronic acid for 60 min at 37° C. under 5% CO2.
# A combined agonist/antagonist protocol was used to measure changes in intracellular calcium concentration. Compound (antagonist) was added to the cell plate using a Fluorometric Imaging Plate Reader (FLIPR) (Molecular Devices, Sunnyvale, Calif., USA). Basal fluorescence was recorded every second for 10 seconds prior to compound addition (10 μl) and fluorescence recorded every second for 1 min then every 6 seconds for a further 1 min. Trypsin (EC50 concentration) was then added using the FLIPR and fluorescence recorded as described above. Curve-fitting and parameter estimation were carried out using GraphPad Prism 4.0 (GraphPad Software Inc., San Diego, Calif.).
row,IC50 [µM],Structure (SMILES)
1,20 to 50,"O=C(NCc1ccc(C2=NCCN2)cc1)N1CCC(Cc2ccccc2)CC1 [Example 39, 4-Benzyl-N-{[4-(4,5-dihydro-1H-imidazol-2-yl)phenyl]methyl}piperidine-1-carboxamide]"
2,20 to 50,"NCc1ccc(CNC(=O)N2CCC(c3ccccc3)CC2)cc1 [Example 20, N-{[4-(Aminomethyl)phen-yl]methyl}-4-phenylpiperidine-1-carboxamide hydrochloride]"
3,5 to 20,"N=C(N)c1ccc(CNC(=O)N2CCC(c3ccccc3)C2)cc1 (stereo not shown) [Example 41, N-[(4-Carbamimidoylphen-yl)methyl]-3-phenylpyrrolidine-1-carboxamide hydrochloride]"
4,20 to 50,"NCc1ccc(CNC(=O)N2CCC(Oc3ccccc3)CC2)cc1 [Example 11, N-{[4-(Aminomethyl)phen-yl]methyl}-4-phenoxypiperidine-1-carboxamide]"
5,5 to 20,"NCc1ccc(CNC(=O)N2CCN(Cc3ccccc3)CC2)cc1 [Example 24, N-{[4-(Aminomethyl)phen-yl]methyl}-4-benzylpiperazine-1-carboxamide]"
6,5 to 20,"NCc1ccc(CNC(=O)N2CCN(Cc3ccccc3Cl)CC2)cc1 [Example 25, N-{[4-(Aminomethyl)phen-yl]methyl]-4-[(2-chlorophenyl)meth-yl]piperazine-1-carboxamide di-hydrochloride]"
7,20 to 50,"NCc1ccc(CNC(=O)N2CCC(CCc3ccccc3)CC2)cc1 [Example 22, N-{[4-(Aminomethyl)phen-yl]methyl}-4-(2-phenylethyl)piperidine-1-carboxamide]"
8,20 to 50,"O=C(NCc1ccc2nc[nH]c2c1)N1CCC(Cc2ccncc2)CC1 [Example 57, N-(1H-1,3-Benzodiazol-6-ylmethyl)-4-(pyridin-4-ylmethyl)piperidine-1-carboxamide]"
9,< 5,"N=C(N)c1ccc(CNC(=O)N2CCN(Cc3ccccc3)CC2)cc1 [Example 42, 4-Benzyl-N-[(4-carbamimidoylphenyl)meth-yl]piperazine-1-carboxamide dihydrochloride]"
10,50 to 100,"CN(Cc1ccc(CN)cc1)C(=O)N1CCC(Cc2ccccc2)CC1 [Example 30, 2,2,2-Trifluoroacetic acid; N-{[4-(aminomethyl)phenyl]methyl}-4-benzyl-N-methylpiperidine-1-carboxamide]"
11,< 5,"NCc1ccc(CNC(=O)N2CCC(Cc3ccc(F)cc3)CC2)cc1 [Example 5, N-{[4-(Aminomethyl)phen-yl]methyl}-4-[(4-fluorophenyl)methyl]piper-idine-1-carboxamide hydrochloride]"
12,< 5,"N=C(N)c1ccc(CNC(=O)N2CCC(Cc3ccncc3)CC2)cc1 [Example 40, N-[(4-Carbamimidoylphen-yl)methyl]-4-(pyridin-4-ylmethyl)piperi-dine-1-carboxamide]"
13,20 to 50,"NCc1ccc(CNC(=O)N2CCN(c3ccccc3)CC2)cc1 [Example 27, N-{[4-(Aminomethyl)phen-yl]methyl}-4-phenyl piperazine-1-carboxamide dihydrochloride]"
14,5 to 20,"O=C(NCc1ccc2nc[nH]c2c1)N1CCC(Cc2ccccc2)CC1 [Example 52, N-(1H-1,3-Benzodiazol-6-ylmethyl)-4-benzylpiperidine-1-carboxamide]"
15,20 to 50,"CNC(=N)c1ccc(CNC(=O)N2CCC(Cc3ccccc3)CC2)cc1 [Example 37, 2,2,2-Trifluoroacetic acid; 4-benzyl-N-{[4-(N-methylcarbamimidoyl)phen-yl]methyl} piperidine-1-carboxamide]"
16,< 5,"N=C(N)c1ccc(CNC(=O)N2CCC(Cc3ccccc3)CC2)cn1 [Example 50, 4-Benzyl-N-[(6-carbam-imidoylpyridin-3-yl)methyl]piperidine-1-carboxamide hydrochloride]"

row,IC50 [µM],Structure (SMILES)
1,20 to 50,"NCc1ccc(CNC(=O)N2CCC(Cc3cccnc3)CC2)cc1 [Example 9, N-{[4-(Aminomethyl)phen-yl]methyl}-4-(pyridin-3-ylmethyl)piperidine-1-carboxamide]"
2,< 5,"N=C(N)c1ccc(CNC(=O)N2CCC(Cc3ccccc3)CC2)cc1 [Example 36, 4-Benzyl-N-[(4-carbamimidoylphenyl)methyl]piperidine-1-carboxamide]"
3,5 to 20,"N=C(N)c1ccc(CNC(=O)C2CCN(Cc3ccccc3)CC2)cc1 [Example 44, 1-Benzyl-N-[(4-carbamimidoylphenyl)meth-yl]piperidine-4-carboxamide dihydrochloride]"
4,20 to 50,"O=C(NCc1ccc2nc[nH]c2c1)N1CCC(Oc2ccc(F)cc2)CC1 [Example 55, N-(1H-1,3-Benzodiazol-6-ylmethyl)-4-(4-fluorophenoxy)piperidine-1-carboxamide]"
5,< 5,"N=C(N)c1ccc(CNC(=O)N2CCC(Cc3ccccc3)CC2)cc1F [Example 45, 4-Benzyl-N-[(4-carbamimidoyl-3-fluorophenyl)meth-yl]piperidine-1-carboxamide hydrochloride]"
6,< 5,"NCc1ccc(CNC(=O)N2CCC(c3nc4ccccc4o3)CC2)cc1 [Example 34, N-{[4-(Aminomethyl)phen-yl]methyl}-4-(1,3-benzoxazol-2-yl)pipe-ridine-1-carboxamide]"
7,5 to 20,"CN(C)C(=N)c1ccc(CNC(=O)N2CCC(Cc3ccccc3)CC2)cc1 [Example 38, 2,2,2-Trifluoroacetic acid; 4-benzyl-N-{[4-(N,N-dimethylcar-bamimidoyl)phen-yl]methyl} piperidine-1-carboxamide]"
8,20 to 50,"NCCCCCNC(=O)N1CCC(Cc2ccccc2)CC1 [Example 68, N-(5-Aminopentyl)-4-benzylpiperidine-1-carboxamide]"
9,< 5,"NCc1ccc(CNC(=O)N2CCC(Cc3cccc(F)c3)CC2)cc1 [Example 4, 2,2,2-Trifluoroacetic acid; N-{[4-(aminomethyl)phenyl]methyl}-4-[(3-fluorophenyl)methyl] piperidine-1-carboxamide]"
10,50 to 100,"Cn1cnc2ccc(CNC(=O)N3CCC(Cc4ccccc4)CC3)cc21 [Example 54, 4-Benzyl-N-[(1-methyl-1H-1,3-benzodiazol-6-yl)methyl]piperidine-1-carboxamide]"
11,50 to 100,"NCc1ccc(CNC(=O)N2CCC(c3ccccc3)C2)cc1 (stereo not shown) [Example 29, 2,2,2-Trifluoroacetic acid; N-{[4-(aminomethyl)phenyl]methyl}-3-phenylpyrrolidine-1-carboxamide]"
12,5 to 20,"NCc1ccc(CNC(=O)N2CCC(Oc3ccc(F)cc3)CC2)cc1 [Example 12, N-{[4-(Aminomethyl)phen-yl]methyl}-4-(4-fluorophenoxy)piperidine-1-carboxamide]"
13,20 to 50,"O=C(NCc1cc2cnccc2[nH]1)N1CCC(Cc2ccccc2)CC1 [Example 53, 4-Benzyl-N-{1H-pyrrolo[3,2-c]pyridin-2-ylmethyl}piperidine-1-carboxamide]"
14,5 to 20,"NCc1ccc(CNC(=O)N2CCC(Cc3ccccc3)CC2)cc1 [Example 1, (4-{[(4-Benzylpiperidin-1-yl)carbonylamino]methyl}phenyl)methanaminium chloride]"
15,< 5,"N=C(N)c1ccc(CNC(=O)N2CCC(Cc3cccc(O)c3)CC2)cc1 [Example 47, N-[(4-Carbamimidoylphen-yl)methyl]-4-[(3-hydroxyphenyl)meth-yl]piperidine-1-carboxamide hydrochloride]"
